Measurements as given in patent US20170166598A1, “HETEROARYL COMPOUNDS FOR KINASE INHIBITION” (ARIAD PHARMACEUTICALS, INC., priority 2014, published 2017).

Legend:
Format in all cases: cell-based
[1] = target: T1, human EGFR E746-A750 deletion and T790M Mutation (Homo sapiens, UniProt P00533, DEL746-750/T790M); assay: Ba/F3-EGFR-Del/T790M cell anti-proliferative assay (CellTiter 96 MTS, 72 h); conditions: Ba/F3-EGFR-Del/T790M cells
T1 construct: expressed in transfected cells; host or cells: Ba/F3 (murine pro-B) cells transduced with lentivirus from pLVX-IRES puro
T1 sequence (P00533 with tags, fused parts or gaps DEL746-750/T790M): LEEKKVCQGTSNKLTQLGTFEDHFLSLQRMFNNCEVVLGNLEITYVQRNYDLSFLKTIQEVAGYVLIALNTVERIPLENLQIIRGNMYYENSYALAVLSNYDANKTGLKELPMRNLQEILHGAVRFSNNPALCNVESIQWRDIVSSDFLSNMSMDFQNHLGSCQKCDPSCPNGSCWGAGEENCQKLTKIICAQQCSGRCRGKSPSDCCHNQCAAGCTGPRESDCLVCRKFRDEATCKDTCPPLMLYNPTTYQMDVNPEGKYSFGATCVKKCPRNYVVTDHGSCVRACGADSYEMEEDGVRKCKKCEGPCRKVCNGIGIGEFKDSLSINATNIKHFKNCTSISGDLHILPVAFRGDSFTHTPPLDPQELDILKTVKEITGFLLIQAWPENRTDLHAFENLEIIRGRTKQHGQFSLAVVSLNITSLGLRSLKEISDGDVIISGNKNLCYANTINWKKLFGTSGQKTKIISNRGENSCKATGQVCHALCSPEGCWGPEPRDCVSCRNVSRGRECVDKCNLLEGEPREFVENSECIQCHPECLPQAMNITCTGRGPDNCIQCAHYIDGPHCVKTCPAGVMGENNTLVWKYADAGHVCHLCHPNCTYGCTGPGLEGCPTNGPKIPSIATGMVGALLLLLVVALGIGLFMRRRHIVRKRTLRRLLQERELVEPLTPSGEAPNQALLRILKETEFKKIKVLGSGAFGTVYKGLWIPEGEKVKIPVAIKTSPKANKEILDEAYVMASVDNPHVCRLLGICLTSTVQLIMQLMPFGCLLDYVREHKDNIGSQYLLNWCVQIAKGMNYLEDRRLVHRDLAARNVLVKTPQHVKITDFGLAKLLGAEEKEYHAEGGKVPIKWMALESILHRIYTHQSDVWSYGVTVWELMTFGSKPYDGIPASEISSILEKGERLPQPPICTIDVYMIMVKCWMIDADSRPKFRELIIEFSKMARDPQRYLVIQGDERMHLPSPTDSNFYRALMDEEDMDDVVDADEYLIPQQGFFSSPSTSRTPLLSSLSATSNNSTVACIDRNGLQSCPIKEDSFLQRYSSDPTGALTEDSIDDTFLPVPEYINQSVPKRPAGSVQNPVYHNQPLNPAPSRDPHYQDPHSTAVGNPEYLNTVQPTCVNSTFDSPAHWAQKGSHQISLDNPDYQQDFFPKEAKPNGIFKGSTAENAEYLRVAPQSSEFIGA
In short: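 Ba/F3 cells made IL-3-independent by lentiviral human EGFR E746-A750 del/T790M, puromycin-selected. Cells treated 72 h at 37 °C with compound, 4-fold dilutions from 10,000 nM top concentration. Viability read by MTS tetrazolium-to-formazan conversion, absorbance at 490 nm after 2 h with reagent.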

[2] = target: T2, Her2 exon 20 YVMA insertion (A775_G776ins YVMA) (Homo sapiens, UniProt P04626, INS775YVMA); assay: Ba/F3-Her2 Exon20 YVMA cell anti-proliferative assay (CellTiter 96 MTS, 72 h); conditions: Ba/F3-Her2 Exon20 YVMA cells
T2 construct: expressed in transfected cells; host or cells: Ba/F3 (murine pro-B) cells transduced with lentivirus from pLVX-IRES puro
T2 sequence (P04626 with tags, fused parts or gaps INS775YVMA): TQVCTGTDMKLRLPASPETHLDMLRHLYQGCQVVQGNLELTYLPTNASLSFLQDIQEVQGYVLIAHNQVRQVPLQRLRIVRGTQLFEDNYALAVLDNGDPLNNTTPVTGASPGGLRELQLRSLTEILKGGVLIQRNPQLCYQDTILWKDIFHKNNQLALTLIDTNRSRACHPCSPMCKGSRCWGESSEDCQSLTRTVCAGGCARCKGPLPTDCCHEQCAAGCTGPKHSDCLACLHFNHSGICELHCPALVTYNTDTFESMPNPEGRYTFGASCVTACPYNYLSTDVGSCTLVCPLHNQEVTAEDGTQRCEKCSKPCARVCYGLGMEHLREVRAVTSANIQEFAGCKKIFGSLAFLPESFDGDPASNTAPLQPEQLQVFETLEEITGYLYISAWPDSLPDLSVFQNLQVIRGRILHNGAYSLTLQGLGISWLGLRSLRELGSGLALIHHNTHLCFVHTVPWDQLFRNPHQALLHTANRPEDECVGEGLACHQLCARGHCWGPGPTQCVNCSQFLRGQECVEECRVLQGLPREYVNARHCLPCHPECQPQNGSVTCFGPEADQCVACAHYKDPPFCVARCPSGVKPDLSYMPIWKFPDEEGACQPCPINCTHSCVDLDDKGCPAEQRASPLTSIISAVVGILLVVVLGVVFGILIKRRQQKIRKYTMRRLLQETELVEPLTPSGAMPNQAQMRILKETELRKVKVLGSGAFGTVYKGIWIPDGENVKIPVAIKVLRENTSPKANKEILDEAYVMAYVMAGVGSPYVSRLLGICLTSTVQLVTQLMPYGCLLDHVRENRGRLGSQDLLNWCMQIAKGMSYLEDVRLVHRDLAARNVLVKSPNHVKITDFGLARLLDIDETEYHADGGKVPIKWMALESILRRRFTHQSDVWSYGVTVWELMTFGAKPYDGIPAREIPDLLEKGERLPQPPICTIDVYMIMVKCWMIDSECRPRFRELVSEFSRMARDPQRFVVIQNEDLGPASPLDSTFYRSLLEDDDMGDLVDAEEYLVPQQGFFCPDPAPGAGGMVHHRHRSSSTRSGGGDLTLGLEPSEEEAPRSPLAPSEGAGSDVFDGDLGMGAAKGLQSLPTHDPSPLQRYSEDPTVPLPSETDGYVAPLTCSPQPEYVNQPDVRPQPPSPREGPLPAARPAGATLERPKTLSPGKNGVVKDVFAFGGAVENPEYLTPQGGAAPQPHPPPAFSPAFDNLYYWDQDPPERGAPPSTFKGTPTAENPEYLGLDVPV
In short: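 IL-3-independent Ba/F3 cells transduced with the YVMA insertion were treated with compound in 4-fold dilutions from 10,000 nM top. After 72 h at 37° C, viable cells were quantified by MTS tetrazolium conversion, with absorbance read at 490 nm after 2 h.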

[3] = target: T3, human EGFR exon 20 insertion NPG (H773_V774insNPG) (Homo sapiens, UniProt P00533, INS772GNP); assay: Ba/F3-EGFR-Exon20-NPG cell anti-proliferative assay (CellTiter 96 MTS, 72 h); conditions: Ba/F3-EGFR-Exon20-NPG cells
T3 construct: expressed in transfected cells; host or cells: Ba/F3 (murine pro-B) cells transduced with lentivirus from pLVX-IRES puro
T3 sequence (P00533 with tags, fused parts or gaps INS772GNP): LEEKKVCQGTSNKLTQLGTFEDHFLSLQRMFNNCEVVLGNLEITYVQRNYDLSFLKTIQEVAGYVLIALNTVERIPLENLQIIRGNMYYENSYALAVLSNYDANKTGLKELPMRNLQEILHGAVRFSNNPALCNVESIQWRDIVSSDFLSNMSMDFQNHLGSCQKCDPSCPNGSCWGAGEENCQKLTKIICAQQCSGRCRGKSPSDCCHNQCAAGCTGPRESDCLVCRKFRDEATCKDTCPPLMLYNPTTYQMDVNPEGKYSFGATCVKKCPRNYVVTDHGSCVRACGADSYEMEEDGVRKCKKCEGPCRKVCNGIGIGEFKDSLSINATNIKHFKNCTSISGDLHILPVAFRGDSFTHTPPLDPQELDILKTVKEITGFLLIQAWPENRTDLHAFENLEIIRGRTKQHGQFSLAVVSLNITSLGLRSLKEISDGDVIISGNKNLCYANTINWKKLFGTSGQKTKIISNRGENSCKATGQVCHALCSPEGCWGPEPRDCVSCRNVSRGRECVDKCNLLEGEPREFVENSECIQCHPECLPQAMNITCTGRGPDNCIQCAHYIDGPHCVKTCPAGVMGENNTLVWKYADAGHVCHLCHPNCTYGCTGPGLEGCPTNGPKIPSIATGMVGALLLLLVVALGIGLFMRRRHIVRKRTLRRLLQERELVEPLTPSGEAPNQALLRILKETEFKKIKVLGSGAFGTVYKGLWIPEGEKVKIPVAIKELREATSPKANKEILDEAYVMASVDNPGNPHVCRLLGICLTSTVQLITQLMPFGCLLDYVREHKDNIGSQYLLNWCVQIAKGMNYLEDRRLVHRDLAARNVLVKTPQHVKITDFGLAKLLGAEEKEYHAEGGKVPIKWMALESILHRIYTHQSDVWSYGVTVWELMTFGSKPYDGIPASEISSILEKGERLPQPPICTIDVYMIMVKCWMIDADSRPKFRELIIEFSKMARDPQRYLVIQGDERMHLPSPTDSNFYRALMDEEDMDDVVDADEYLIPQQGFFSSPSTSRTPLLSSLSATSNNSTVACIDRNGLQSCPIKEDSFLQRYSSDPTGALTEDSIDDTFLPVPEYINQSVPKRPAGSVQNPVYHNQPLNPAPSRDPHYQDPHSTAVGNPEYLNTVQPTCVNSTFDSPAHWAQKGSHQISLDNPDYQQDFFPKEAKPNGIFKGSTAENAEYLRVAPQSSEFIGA
In short: (§1)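 Ba/F3 cells made IL-3-independent by lentiviral EGFR exon 20 NPG or ASV insertion were exposed 72 h at 37 °C to 4-fold dilutions of compound (top 10,000 nM). Viability read by MTS tetrazolium conversion, absorbance 490 nm after 2 h.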

[4] = target: T4, human EGFR exon 20 insertion ASV (V769_D770insASV) (Homo sapiens, UniProt P00533, INS769ASV); assay: Ba/F3-EGFR-Exon20-ASV cell anti-proliferative assay (CellTiter 96 MTS, 72 h); conditions: Ba/F3-EGFR-Exon20-ASV cells
T4 construct: expressed in transfected cells; host or cells: Ba/F3 (murine pro-B) cells transduced with lentivirus from pLVX-IRES puro
T4 sequence (P00533 with tags, fused parts or gaps INS769ASV): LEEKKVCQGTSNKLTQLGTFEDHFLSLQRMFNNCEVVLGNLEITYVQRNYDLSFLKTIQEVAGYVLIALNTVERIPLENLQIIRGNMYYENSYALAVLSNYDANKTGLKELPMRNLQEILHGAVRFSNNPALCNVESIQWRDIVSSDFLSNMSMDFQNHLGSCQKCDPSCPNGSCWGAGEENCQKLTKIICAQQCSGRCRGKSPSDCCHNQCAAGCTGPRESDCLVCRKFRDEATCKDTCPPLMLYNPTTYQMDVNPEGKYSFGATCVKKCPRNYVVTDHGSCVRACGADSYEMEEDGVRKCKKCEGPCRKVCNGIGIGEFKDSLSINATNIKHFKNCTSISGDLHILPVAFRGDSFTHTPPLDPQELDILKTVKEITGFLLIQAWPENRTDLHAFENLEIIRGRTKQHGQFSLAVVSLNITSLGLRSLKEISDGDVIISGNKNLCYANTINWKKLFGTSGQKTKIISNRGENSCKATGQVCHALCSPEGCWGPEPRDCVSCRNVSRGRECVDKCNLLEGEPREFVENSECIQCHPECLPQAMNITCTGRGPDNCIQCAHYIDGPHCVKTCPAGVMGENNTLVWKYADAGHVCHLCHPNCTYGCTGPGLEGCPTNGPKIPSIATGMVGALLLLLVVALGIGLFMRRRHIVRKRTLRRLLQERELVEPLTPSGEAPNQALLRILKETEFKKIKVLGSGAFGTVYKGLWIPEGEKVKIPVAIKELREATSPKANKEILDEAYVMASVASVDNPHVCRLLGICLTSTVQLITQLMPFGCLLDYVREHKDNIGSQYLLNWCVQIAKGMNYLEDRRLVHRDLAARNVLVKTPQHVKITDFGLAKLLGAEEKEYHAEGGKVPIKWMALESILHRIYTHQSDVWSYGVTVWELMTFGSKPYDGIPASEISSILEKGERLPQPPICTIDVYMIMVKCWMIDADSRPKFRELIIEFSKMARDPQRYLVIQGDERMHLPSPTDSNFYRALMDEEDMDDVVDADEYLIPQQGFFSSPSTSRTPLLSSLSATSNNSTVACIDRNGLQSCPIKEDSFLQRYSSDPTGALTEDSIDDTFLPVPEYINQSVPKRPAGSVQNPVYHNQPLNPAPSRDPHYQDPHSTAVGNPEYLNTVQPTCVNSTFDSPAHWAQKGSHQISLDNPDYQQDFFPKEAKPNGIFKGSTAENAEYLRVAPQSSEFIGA
In short: as §1

| Compound | IC50 [2] [nM] | IC50 [3] [nM] | IC50 [4] [nM] | EGFR exon 19 deletion and exon 20 T790M mutation IC50 [1] |
| --- | --- | --- | --- | --- |
| C=CC(=O)Nc1cc(Nc2ncc(CCC3CCCC3)c(-c3cn4c5c(cccc35)CCC4)n2)c(OC)cc1N(C)CCN(C)C [Example 35] | 500 to 1000 | 100 to 500 | 500 to 1000 | C (IC50 value for the indicated mutant between greater than about 500 to about 1 μM) |
| C=CC(=O)Nc1cc(Nc2ncc(CCC(=O)OC)c(-c3cn4c5c(cccc35)CCC4)n2)c(OC)cc1N(C)CCN(C)C [Example 39, methyl 3-(2-((5-acrylamido-4-((2-(dimethylamino)ethyl)(methyl)amino)-2-methoxyphenyl)amino)-4-(5,6-dihydro-4H-pyrrolo[3,2,1-ij]quinolin-1-yl)pyrimidin-5-yl)propanoate] | 100 to 500 | < 100 | 100 to 500 | A (IC50 value for the indicated mutant below about 100 nM) |
| C=CC(=O)Nc1cc(Nc2nccc(-c3c(N4CCCC4=O)n4c5c(cccc35)CCC4)n2)c(OC)cc1N(C)CCN(C)C [Example 72, N-(2-((2-(dimethylamino)ethyl)(methyl)amino)-4-methoxy-5-((4-(2-(2-oxopyrrolidin-1-yl)-5,6-dihydro-4H-pyrrolo[3,2,1-ij]quinolin-1-yl)pyrimidin-2-yl)amino)phenyl)acrylamide] | 100 to 500 | < 100 | < 100 | A (IC50 value for the indicated mutant below about 100 nM) |
| C=CC(=O)Nc1cc(Nc2ncc(C(=O)OC)c(-c3nn4c5c(cccc35)OCC4)n2)c(OC)cc1N(C)CCN(C)C [Example 65, Methyl 2-((5-acrylamido-4-((2-(dimethylamino)ethyl)(methyl)amino)-2-methoxyphenyl)amino)-4-(2,3-dihydro-[1,4]oxazino[2,3,4-hi]indazol-6-yl)pyrimidine-5-carboxylate] | < 100 | < 100 | < 100 | A (IC50 value for the indicated mutant below about 100 nM) |
| C=CC(=O)Nc1cc(Nc2ncc(OCCOC)c(-c3cn4c5c(cccc35)CCC4)n2)c(OC)cc1N(C)CCN(C)C [Example 104] | 100 to 500 | < 100 | < 100 | A (IC50 value for the indicated mutant below about 100 nM) |
| C=CC(=O)Nc1cc(Nc2ncc(-c3cn(C)nc3C)c(-c3cn4c5c(cccc35)CCC4)n2)c(OC)cc1N(C)CCN(C)C [Example 100] | < 100 | < 100 | < 100 | A (IC50 value for the indicated mutant below about 100 nM) |
| C=CC(=O)Nc1cc(Nc2ncc(-c3cnn(C)c3C)c(-c3cn4c5c(cccc35)CCC4)n2)c(OC)cc1N(C)CCN(C)C [Example 102] | < 100 | < 100 | < 100 | A (IC50 value for the indicated mutant below about 100 nM) |
| C=CC(=O)Nc1cc(Nc2ncc(C(=O)OCC)c(-c3cn4c5c(cccc35)CCC4)n2)c(OC)cc1N(C)CCN(C)C [Example 69, ethyl 2-((5-acrylamido-4-((2-(dimethylamino)ethyl)(methyl)amino)-2-methoxyphenyl)amino)-4-(5,6-dihydro-4H-pyrrolo[3,2,1-ij]quinolin-1-yl)pyrimidine-5-carboxylate] | < 100 | < 100 | < 100 | A (IC50 value for the indicated mutant below about 100 nM) |
| C=CC(=O)Nc1cc(Nc2ncc(C#N)c(-c3cn4c5c(cccc35)N(C)C(=O)C4)n2)c(OC)cc1N(C)CCN(C)C [Example 52, N-(5-((5-cyano-4-(1-methyl-2-oxo-2,3-dihydro-1H-pyrrolo[1,2,3-de]quinoxalin-6-yl)pyrimidin-2-yl)amino)-2-((2-(dimethylamino)ethyl)(methyl)amino)-4-methoxyphenyl)acrylamide] | < 100 | < 100 | < 100 | A (IC50 value for the indicated mutant below about 100 nM) |
| C=CC(=O)Nc1cc(Nc2ncc(-c3ccnn3C)c(-c3cn4c5c(cccc35)CCC4)n2)c(OC)cc1N(C)CCN(C)C [Example 53, N-(5-((4-(5,6-dihydro-4H-pyrrolo[3,2,1-ij]quinolin-1-yl)-5-(1-methyl-1H-pyrazol-5-yl)pyrimidin-2-yl)amino)-2-((2-(dimethylamino)ethyl)(methyl)amino)-4-methoxyphenyl)acrylamide] | < 100 | < 100 | < 100 | A (IC50 value for the indicated mutant below about 100 nM) |
| C=CC(=O)Nc1cc(Nc2ncc(C(=O)OC)c(-c3cn4c5c(cccc35)CCC4)n2)c(OC)cc1N(C)CC1CCCN1C (stereo not shown) [Example 89] | < 100 | < 100 | < 100 | A (IC50 value for the indicated mutant below about 100 nM) |
| C=CC(=O)Nc1cc(Nc2ncc(Cl)c(-c3cn4c5c(cccc35)OCC4)n2)c(OC)cc1N(C)C1CCN(C)C1 (stereo not shown) [Example 9, N-(5-((5-chloro-4-(2,3-dihydro-[1,4]oxazino[2,3,4-hi]indol-6-yl)pyrimidin-2-yl)amino)-4-methoxy-2-(methyl(1-methylpyrrolidin-3-yl)amino)phenyl)acrylamide] | 500 to 1000 | < 100 | 100 to 500 | A (IC50 value for the indicated mutant below about 100 nM) |

More lines, main results first:

| IC50 [2] [nM] | IC50 [3] [nM] | IC50 [4] [nM] | Compound | EGFR exon 19 deletion and exon 20 T790M mutation IC50 [1] |
| --- | --- | --- | --- | --- |
| 100 to 500 | < 100 | 100 to 500 | C=CC(=O)Nc1cc(Nc2ncc(C(=O)NC)c(-c3cn4c5c(cccc35)CCC4)n2)c(OC)cc1N(C)CCN(C)C [Example 54, 2-((5-acrylamido-4-((2-(dimethylamino)ethyl)(methyl)amino)-2-methoxyphenyl)amino)-4-(5,6-dihydro-4H-pyrrolo[3,2,1-ij]quinolin-1-yl)-N-methylpyrimidine-5-carboxamide] | A (IC50 value for the indicated mutant below about 100 nM) |
| 100 to 500 | < 100 | < 100 | C=CC(=O)Nc1cc(Nc2ncc(CC)c(-c3cn4c5c(cccc35)CCC4)n2)c(OC)cc1N(C)CCN(C)C [Example 2, N-(5-((4-(5,6-dihydro-4H-pyrrolo[3,2,1-ij]quinolin-1-yl)-5-ethylpyrimidin-2-yl)amino)-2-((2-(dimethylamino)ethyl)(methyl)amino)-4-methoxyphenyl)acrylamide] | A (IC50 value for the indicated mutant below about 100 nM) |
| 100 to 500 | < 100 | 100 to 500 | C=CC(=O)Nc1cc(Nc2ncc(F)c(-c3cn4c5c(cccc35)CCC4)n2)c(OC)cc1N(C)CCN(C)C [Example 17, N-(5-((4-(5,6-dihydro-4H-pyrrolo[3,2,1-ij]quinolin-1-yl)-5-fluoropyrimidin-2-yl)amino)-2-((2-(dimethylamino)ethyl)(methyl)amino)-4-methoxyphenyl)acrylamide] | A (IC50 value for the indicated mutant below about 100 nM) |
| 100 to 500 | < 100 | < 100 | C=CC(=O)Nc1cc(Nc2ncc(OC(F)F)c(-c3cn4c5c(cccc35)CCC4)n2)c(OC)cc1N(C)CCN(C)C [Example 64, N-(5-((5-(difluoromethoxy)-4-(5,6-dihydro-4H-pyrrolo[3,2,1-ij]quinolin-1-yl)pyrimidin-2-yl)amino)-2-((2-(dimethylamino)ethyl)-(methyl)amino)-4-methoxyphenyl)acrylamide] | A (IC50 value for the indicated mutant below about 100 nM) |
| < 100 | < 100 | < 100 | C=CC(=O)Nc1cc(Nc2ncc(C(=O)CC)c(-c3cn4c5c(cccc35)CCC4)n2)c(OC)cc1N(C)CCN(C)C [Example 88] | A (IC50 value for the indicated mutant below about 100 nM) |
| 100 to 500 | < 100 | < 100 | C=CC(=O)Nc1cc(Nc2ncc(OCC(F)F)c(-c3cn4c5c(cccc35)CCC4)n2)c(OC)cc1N(C)CCN(C)C [Example 95] | A (IC50 value for the indicated mutant below about 100 nM) |
| 100 to 500 | < 100 | < 100 | C=CC(=O)Nc1cc(Nc2ncc(N(C)CCO)c(-c3cn4c5c(cccc35)CCC4)n2)c(OC)cc1N(C)CCN(C)C [Example 60, N-(5-((4-(5,6-dihydro-4H-pyrrolo[3,2,1-ij]quinolin-1-yl)-5-((2-hydroxyethyl)(methyl)amino)pyrimidin-2-yl)amino)-2-((2-(dimethylamino)ethyl)-(methyl)amino)-4-methoxyphenyl)acrylamide] | A (IC50 value for the indicated mutant below about 100 nM) |
